From US9757353B2, “Methods of inducing anesthesia” (THE REGENTS OF THE UNIVERSITY OF CALIFORNIA, priority 2012, dated 2017)

Key:
[1] = tested on: some inhibitory potassium channels; test: Inhibitory potassium channel modulation in vitro; type: cell-based
[2] = biological target: T1, NMDA (NR1/NR2A) receptors (Rattus norvegicus, UniProt P35439+Q00959); test: Oocyte two-electrode voltage clamp, NMDA receptor currents; type: cell-based; conditions: saturating aqueous concentration
T1 construct: expressed in transfected cells; host or cells: Xenopus laevis oocytes, injected with in vitro transcribed RNA (1:1), clones a gift from Dr. R. A. Harris
T1 sequence (Q00959 23-1464, other chains not shown): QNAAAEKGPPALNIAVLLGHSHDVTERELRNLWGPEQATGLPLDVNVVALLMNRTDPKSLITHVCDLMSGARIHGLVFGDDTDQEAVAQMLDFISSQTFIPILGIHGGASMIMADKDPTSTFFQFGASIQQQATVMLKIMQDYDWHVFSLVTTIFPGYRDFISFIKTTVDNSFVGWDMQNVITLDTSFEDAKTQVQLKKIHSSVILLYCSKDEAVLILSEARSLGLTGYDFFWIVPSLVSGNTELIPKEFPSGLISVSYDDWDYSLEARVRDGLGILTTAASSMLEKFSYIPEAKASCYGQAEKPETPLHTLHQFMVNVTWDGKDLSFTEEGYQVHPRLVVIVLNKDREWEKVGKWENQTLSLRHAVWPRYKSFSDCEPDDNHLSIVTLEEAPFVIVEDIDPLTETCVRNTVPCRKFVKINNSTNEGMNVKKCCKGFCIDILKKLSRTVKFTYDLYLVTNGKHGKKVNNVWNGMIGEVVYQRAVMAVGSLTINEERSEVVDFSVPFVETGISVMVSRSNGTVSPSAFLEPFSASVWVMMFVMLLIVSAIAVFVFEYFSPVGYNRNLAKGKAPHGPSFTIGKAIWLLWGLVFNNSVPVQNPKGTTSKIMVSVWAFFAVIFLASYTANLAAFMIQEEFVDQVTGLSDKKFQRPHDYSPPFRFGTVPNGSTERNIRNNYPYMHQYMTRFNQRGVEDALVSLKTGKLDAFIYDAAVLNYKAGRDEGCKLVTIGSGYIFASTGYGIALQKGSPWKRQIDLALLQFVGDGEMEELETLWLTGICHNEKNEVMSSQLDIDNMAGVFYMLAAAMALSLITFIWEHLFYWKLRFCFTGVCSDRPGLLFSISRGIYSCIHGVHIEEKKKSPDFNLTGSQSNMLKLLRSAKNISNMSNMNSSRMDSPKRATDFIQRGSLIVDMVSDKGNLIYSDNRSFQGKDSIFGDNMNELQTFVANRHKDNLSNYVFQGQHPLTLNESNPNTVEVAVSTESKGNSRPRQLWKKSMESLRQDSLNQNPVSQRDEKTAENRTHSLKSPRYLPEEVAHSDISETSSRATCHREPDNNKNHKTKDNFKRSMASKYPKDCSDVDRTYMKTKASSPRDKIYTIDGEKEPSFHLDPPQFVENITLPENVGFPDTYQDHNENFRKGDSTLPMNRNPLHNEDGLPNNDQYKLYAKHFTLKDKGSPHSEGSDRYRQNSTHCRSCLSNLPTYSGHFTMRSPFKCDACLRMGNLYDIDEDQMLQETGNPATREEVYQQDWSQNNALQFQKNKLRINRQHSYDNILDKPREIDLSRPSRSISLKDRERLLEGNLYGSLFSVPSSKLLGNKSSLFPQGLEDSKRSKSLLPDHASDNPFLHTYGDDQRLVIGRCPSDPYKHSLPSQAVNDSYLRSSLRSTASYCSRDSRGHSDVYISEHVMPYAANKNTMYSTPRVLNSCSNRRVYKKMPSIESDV
Text: Methods: GABAA (α1β2γ2s) or NMDA (NR1/NR2A) receptors were expressed in oocytes and studied using standard two-electrode voltage clamp techniques. Hydrocarbons from 14 different organic functional groups were studied at saturated concentrations, and compounds within each group differed only by the carbon number at the ω-position or within a saturated ring. An effect on GABAA or NMDA receptors was defined as a 10% or greater reversible current change from baseline that was statistically different from zero.
Oocyte Collection and Receptor Expression. An ovary from tricaine-anesthetized Xenopus laevis frogs was surgically removed using a protocol approved by the Institutional Animal Care and Use Committee at the University of California, Davis. Following manual disruption of the ovarian lobule septae, the ovary was incubated in 0.2% Type I collagenase (Worthington Biochemical, Lakewood, N.J.) to defolliculate oocytes which were washed and stored in fresh and filtered modified Barth's solution composed of 88 mM NaCl, 1 mM KCl, 2.4 mM NaHCO3, 20 mM HEPES, 0.82 mM MgSO4, 0.33 mM Ca(NO3)2, 0.41 mM CaCl2, 5 mM sodium pyruvate, gentamycin, penicillin, streptomycin, and corrected to pH=7.4. All salts and antibiotics were A.C.S. grade (Fisher Scientific, Pittsburgh, Pa.).
Clones used were provided as a gift from Dr. R. A. Harris (University of Texas, Austin) and were sequenced and compared to references in the National Center for Biotechnology Information database to confirm the identity of each gene. GABAA receptors were expressed using clones for the human GABAA α1 and the rat GABAA β2 and γ2s subunits in pCIS-II vectors. […] In separate oocytes, glutamate receptors were expressed using rat NMDA NR1 clones in a pCDNA3 vector and rat NMDA NR2A clones in a Bluescript vector. RNA encoding each subunit was prepared using a commercial transcription kit (T7 mMessage mMachine, Ambion, Austin, Tex.) was mixed in a 1:1 ratio, and 1-10 ng of total RNA was injected into oocytes and studied 1-2 days later.
NMDA Receptor Electrophysiology Studies. […] Briefly, baseline perfusion solutions were the same as for GABAA with the substitution of equimolar BaCl2 for calcium salts and the addition of 0.1 mM EGTA; this constituted barium frog Ringer's solution (BaFR). Agonist solutions for NMDA studies also contained 0.1 mM glutamate (E) and 0.01 mM glycine (G) to constitute a BaFREG solution.
The syringe pump and perfusion chamber apparatus as well as the clamp holding potential and baseline-agonist exposure protocols were identical to that described for the GABAA studies. The same test compounds, concentrations, and preparative methods were used in NMDA voltage clamp studies as in the GABAA voltage clamp studies (Table 2).
Response Calculations and Data Analysis. Modulating drug responses were calculated as the percent of the control (baseline) peak as follows:
[formula] where ID and IB were the peak currents measured during agonist+drug and agonist baseline perfusions, respectively. When present, direct receptor activation by a drug was similarly calculated as a percent of the agonist response. […] A lack of receptor response (cut-off) was defined as a <10% change from baseline current that was statistically indistinguishable from zero using a two-tailed Student t-test.

[3] = biological target: GABAA (α1β2γ2s) receptors (UniProt P14867+P18508+P63138); test: Oocyte two-electrode voltage clamp, GABAA receptor currents; conditions: saturating aqueous concentration
Sequence of GABAA (α1β2γ2s) receptors (P14867 28-456): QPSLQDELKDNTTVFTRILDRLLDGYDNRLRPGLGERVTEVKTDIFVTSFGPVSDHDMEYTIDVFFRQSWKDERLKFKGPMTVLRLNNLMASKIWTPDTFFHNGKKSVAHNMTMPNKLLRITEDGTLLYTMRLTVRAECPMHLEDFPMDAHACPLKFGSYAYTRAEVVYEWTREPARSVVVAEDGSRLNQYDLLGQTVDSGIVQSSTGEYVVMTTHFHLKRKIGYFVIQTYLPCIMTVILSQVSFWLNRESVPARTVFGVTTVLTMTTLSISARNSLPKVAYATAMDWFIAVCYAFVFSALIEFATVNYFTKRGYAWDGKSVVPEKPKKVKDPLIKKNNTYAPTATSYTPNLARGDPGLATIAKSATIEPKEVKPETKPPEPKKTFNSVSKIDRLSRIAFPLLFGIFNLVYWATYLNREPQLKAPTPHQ
Sequence of GABAA (α1β2γ2s) receptors (P63138 25-474 limits assumed): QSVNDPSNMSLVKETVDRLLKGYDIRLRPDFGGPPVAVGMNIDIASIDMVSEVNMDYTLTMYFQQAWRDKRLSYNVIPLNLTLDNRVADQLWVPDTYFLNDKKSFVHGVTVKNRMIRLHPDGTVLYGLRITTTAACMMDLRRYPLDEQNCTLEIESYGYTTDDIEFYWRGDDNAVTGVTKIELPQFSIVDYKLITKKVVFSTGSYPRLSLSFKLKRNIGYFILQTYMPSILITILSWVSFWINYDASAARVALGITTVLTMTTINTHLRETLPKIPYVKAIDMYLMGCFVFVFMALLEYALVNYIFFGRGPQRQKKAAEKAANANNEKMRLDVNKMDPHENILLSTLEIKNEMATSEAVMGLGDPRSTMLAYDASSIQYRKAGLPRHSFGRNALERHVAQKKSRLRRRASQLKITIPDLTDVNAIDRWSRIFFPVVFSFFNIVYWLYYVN
Sequence of GABAA (α1β2γ2s) receptors (P18508 39-466): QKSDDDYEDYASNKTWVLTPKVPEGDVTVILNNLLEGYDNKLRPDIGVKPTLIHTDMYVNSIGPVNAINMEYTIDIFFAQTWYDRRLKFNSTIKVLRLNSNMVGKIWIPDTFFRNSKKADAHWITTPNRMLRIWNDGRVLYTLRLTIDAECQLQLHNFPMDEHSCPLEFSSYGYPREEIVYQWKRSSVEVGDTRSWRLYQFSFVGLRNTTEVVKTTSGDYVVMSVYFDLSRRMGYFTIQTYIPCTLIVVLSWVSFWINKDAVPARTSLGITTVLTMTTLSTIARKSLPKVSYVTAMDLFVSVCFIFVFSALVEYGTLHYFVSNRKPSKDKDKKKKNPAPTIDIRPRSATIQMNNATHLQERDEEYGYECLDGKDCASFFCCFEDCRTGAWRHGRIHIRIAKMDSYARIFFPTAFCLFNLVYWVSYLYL
Procedure: GABAA receptors were expressed using clones for the human GABAA α1 and the rat GABAA β2 and γ2s subunits in pCIS-II vectors. […] These plasmid ratios ensured incorporation of the γ-subunit into expressed receptors, as confirmed via receptor potentiation to 10 μM chlordiazepoxide or insensitivity to 10 μM zinc chloride during co-application with GABA. In separate oocytes, glutamate receptors were expressed using rat NMDA NR1 clones in a pCDNA3 vector and rat NMDA NR2A clones in a Bluescript vector. RNA encoding each subunit was prepared using a commercial transcription kit (T7 mMessage mMachine, Ambion, Austin, Tex.) was mixed in a 1:1 ratio, and 1-10 ng of total RNA was injected into oocytes and studied 1-2 days later.
Oocytes were studied in a 250 μL linear-flow perfusion chamber with solutions administered by syringe pump at 1.5 ml/min with gastight glass syringes and Teflon tubing. Oocyte GABAA currents were studied using standard two-electrode voltage clamping techniques at a holding potential of 80 mV using a 250 μL channel linear-flow perfusion chamber with solutions administered by syringe pump at 1.5 mL/min.
After FR perfusion for 5 min, oocytes were exposed to 30 sec FR-GABA followed by another 5 min FR washout; this was repeated until stable GABAA-elicited peaks were obtained. Next, FR containing a saturated solution of the study drug (Table 2)—or for gaseous study compounds a vapor pressure equal to 90% of barometric pressure with balance oxygen—was used to perfuse the oocyte chamber for 2 min followed by perfusion with a FR-GABA solution containing the identical drug concentration for 30 sec.
[formula] where ID and IB were the peak currents measured during agonist+drug and agonist baseline perfusions, respectively. When present, direct receptor activation by a drug was similarly calculated as a percent of the agonist response. Average current responses for each drug and channel were described by mean±SD. A lack of receptor response (cut-off) was defined as a <10% change from baseline current that was statistically indistinguishable from zero using a two-tailed Student t-test.

[4] = tested on: ND4 mice; test: Loss of righting reflex in ND4 mice; type: in vivo; conditions: after 2 hours of anesthesia
Procedure: HFCP caused loss of righting reflex (a surrogate measure of unconsciousness) in 4 healthy ND4 mice at 1.0±0.2 (mean±SD) percent of 1 atmosphere. […] After 2 hours of anesthesia, mice were awake after about 1 minute of discontinuing HFCP administration. […] Despite a lack of NMDA receptor effects, 1,1,2,2,3,3,4-heptafluorocyclopentane is able to produce the desired pharmacologic endpoints of unconsciousness and immobility that appears similar to desirable effects produced by conventional agents.

[5] = tested on: heart, lung, kidney and liver tissues; test: Histopathology after anesthesia; type: in vivo, mice; conditions: tissues collected 2 days later
[6] = tested on: glycine; test: Glycine receptor modulation in vitro; type: cell-based

FC1CC(F)(F)C(F)(F)C1(F)F (stereo not drawn) [HFCP, 1,1,2,2,3,3,4-heptafluorocyclopentane]
inhibitory potassium channel modulation (in words) [1]: potentiates | NMDA receptor modulation (in words) [2]: no effect on NMDA receptors | GABAA receptor modulation (in words) [3]: potentiates GABAA | time to awake after discontinuing administration [4]: about 1 minute | histopathology of heart, lung, kidney and liver [5]: no evidence of inflammation or toxicity | glycine receptor modulation (in words) [6]: potentiates
